Reference: the supplement of paper PMC11451515

Test system: NOMO1
Test: cell viability relative to DMSO control; higher = less cytotoxic
Conditions: 48 h
How it was run: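 NOMO1 or SEM (500 cells/well) or P12-Ichikawa (1000 cells/well) leukemia cells were adapted for at least four passages in each medium. They were seeded in 1536-well plates (5 μl) and pin-dosed with library compounds in DMSO over an 11-point threefold series, 47 μM to 0.79 nM. CellTiter-Glo One luminescence was read after 48 h at 37°C. Viability is the per-plate percentage relative to DMSO wells, with cell-free wells as background.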

[1] = HPLM + 10% dialyzed FBS, 0.000781 µM
[2] = HPLM + 10% dialyzed FBS, 0.00234 µM
[3] = HPLM + 10% dialyzed FBS, 0.00702 µM
[4] = HPLM + 10% dialyzed FBS, 0.0211 µM
[5] = HPLM + 10% dialyzed FBS, 0.0632 µM
[6] = HPLM + 10% dialyzed FBS, 0.19 µM
[7] = HPLM + 10% dialyzed FBS, 0.569 µM
[8] = HPLM + 10% dialyzed FBS, 1.71 µM
[9] = HPLM + 10% dialyzed FBS, 5.12 µM
[10] = HPLM + 10% dialyzed FBS, 15.4 µM
[11] = HPLM + 10% dialyzed FBS, 46.1 µM
[12] = RPMI 5 mM glucose + 10% FBS, 0.000781 µM
[13] = RPMI 5 mM glucose + 10% FBS, 0.00234 µM
[14] = RPMI 5 mM glucose + 10% FBS, 0.00702 µM
[15] = RPMI 5 mM glucose + 10% FBS, 0.0211 µM
[16] = RPMI 5 mM glucose + 10% FBS, 0.0632 µM
[17] = RPMI 5 mM glucose + 10% FBS, 0.19 µM
[18] = RPMI 5 mM glucose + 10% FBS, 0.569 µM
[19] = RPMI 5 mM glucose + 10% FBS, 1.71 µM
[20] = RPMI 5 mM glucose + 10% FBS, 5.12 µM
[21] = RPMI 5 mM glucose + 10% FBS, 15.4 µM
[22] = RPMI 5 mM glucose + 10% FBS, 46.1 µM
[23] = RPMI 5 mM glucose + 10% dialyzed FBS, 0.000781 µM
[24] = RPMI 5 mM glucose + 10% dialyzed FBS, 0.00234 µM
[25] = RPMI 5 mM glucose + 10% dialyzed FBS, 0.00702 µM
[26] = RPMI 5 mM glucose + 10% dialyzed FBS, 0.0211 µM
[27] = RPMI 5 mM glucose + 10% dialyzed FBS, 0.0632 µM
[28] = RPMI 5 mM glucose + 10% dialyzed FBS, 0.19 µM
[29] = RPMI 5 mM glucose + 10% dialyzed FBS, 0.569 µM
[30] = RPMI 5 mM glucose + 10% dialyzed FBS, 1.71 µM
[31] = RPMI 5 mM glucose + 10% dialyzed FBS, 5.12 µM
[32] = RPMI 5 mM glucose + 10% dialyzed FBS, 15.4 µM
[33] = RPMI 5 mM glucose + 10% dialyzed FBS, 46.1 µM

Structure (SMILES) | cell viability [1] [%] | cell viability [2] [%] | cell viability [3] [%] | cell viability [4] [%] | cell viability [5] [%] | cell viability [6] [%] | cell viability [7] [%] | cell viability [8] [%] | cell viability [9] [%] | cell viability [10] [%] | cell viability [11] [%] | cell viability [12] [%] | cell viability [13] [%] | cell viability [14] [%] | cell viability [15] [%] | cell viability [16] [%] | cell viability [17] [%] | cell viability [18] [%] | cell viability [19] [%] | cell viability [20] [%] | cell viability [21] [%] | cell viability [22] [%] | cell viability [23] [%] | cell viability [24] [%] | cell viability [25] [%] | cell viability [26] [%] | cell viability [27] [%] | cell viability [28] [%] | cell viability [29] [%] | cell viability [30] [%] | cell viability [31] [%] | cell viability [32] [%] | cell viability [33] [%]
Nc1ccc([S+](=O)([O-])Nc2ccnn2-c2ccccc2)cc1 | 85.1 | 97.6 | 104 | 101 | 108 | 98.6 | 100 | 98.3 | 107 | 102 | 113 | 84.7 | 98.5 | 97.8 | 105 | 98.9 | 97 | 99.4 | 95.6 | 102 | 94.1 | 96.8 | 81.4 | 90.1 | 91.8 | 95.1 | 100 | 104 | 94.7 | 93.8 | 90.1 | 92.6 | 101
CNC(=O)c1ccc(Nc2cc(Nc3ccccc3[S+](=O)([O-])C(C)C)c3cc[nH]c3n2)nc1 | 98.4 | 105 | 111 | 105 | 116 | 102 | 108 | 91.7 | 77.6 | 70.6 | 31.7 | 98 | 100 | 101 | 103 | 102 | 106 | 108 | 102 | 49.2 | 51.9 | 25.1 | 89.1 | 99.1 | 101 | 106 | 102 | 102 | 109 | 95.7 | 57.2 | 56.7 | 34
C[C@]12CC[C@H]3[C@@H](CCC4=CC(=O)CC[C@@H]43)[C@@H]1CC[C@@H]2OC(=O)CCc1ccccc1 |  |  |  |  |  |  |  |  |  |  |  | 126 | 115 | 119 | 130 | 114 | 113 | 112 | 133 | 115 | 128 | 78 | 120 | 127 | 115 | 124 | 141 | 135 | 144 | 133 | 128 | 137 | 68.7
CC12CC3CC(C)(C1)CC(N)(C3)C2 | 119 | 111 | 120 | 98.4 | 125 | 139 | 134 | 129 | 107 | 89.2 | 49.7 | 105 | 116 | 133 | 113 | 122 | 128 | 134 | 108 | 127 | 100 | 58.5 | 111 | 105 | 114 | 111 | 116 | 132 | 135 | 120 | 113 | 102 | 78
CC(=O)Oc1ccccc1C(=O)Nc1ncc([N+](=O)[O-])s1 | 98.9 | 100 | 98.9 | 107 | 111 | 105 | 106 | 96.1 | 98.4 | 71.8 | 89.4 | 84 | 92 | 93.4 | 96.4 | 115 | 92.3 | 102 | 103 | 104 | 97.6 | 96.9 | 83.7 | 95.2 | 77.7 | 86.3 | 94.8 | 98.8 | 95.7 | 98.4 | 86.3 | 69.2 | 75.1
O=P(O)(O)C(O)(Cn1ccnc1)P(=O)(O)O | 95.9 | 126 | 120 | 119 | 125 | 130 | 121 | 139 | 104 | 111 | 117 | 93.5 | 111 | 108 | 103 | 105 | 109 | 101 | 104 | 110 | 104 | 101 | 101 | 127 | 114 | 130 | 112 | 133 | 118 | 124 | 122 | 117 | 104
CN(C)CC(C)(C)CNc1nn2c(-c3ccccc3)nnc2cc1C1CCC1 | 113 | 110 | 117 | 126 | 113 | 109 | 116 | 110 | 91.9 | 39.5 | 22.4 | 107 | 98.4 | 103 | 123 | 103 | 110 | 111 | 122 | 116 | 87 | 15.6 | 91.6 | 110 | 103 | 105 | 102 | 95.5 | 116 | 109 | 100 | 103 | 27.7
N[C@@H]1CONC1=O | 90.7 | 110 | 112 | 101 | 99.4 | 107 | 104 | 110 | 107 | 94.4 | 105 | 84.4 | 88.7 | 95.7 | 91.6 | 94.4 | 90.6 | 94.2 | 99.4 | 94.6 | 90.1 | 88.7 | 87.4 | 98.8 | 112 | 96 | 99.3 | 101 | 107 | 88 | 96.2 | 89.9 | 93.7
Cc1cccc(Nc2ccncc2[S+](=O)([O-])NC(=O)NC(C)C)c1 | 105 | 103 | 100 | 85.6 | 112 | 105 | 103 | 87.3 | 80.9 | 89.3 | 56 | 95.6 | 89.6 | 96.4 | 88.9 | 83 | 84.8 | 89.4 | 89.1 | 79.2 | 82.3 | 72.4 | 89.1 | 91.4 | 81.1 | 94.1 | 93.6 | 92.6 | 85.5 | 89.3 | 83.5 | 81 | 65.8
CCCCN(CCCC)CC(O)c1cc(Cl)cc2c1-c1ccc(Cl)cc1/C2=C/c1ccc(Cl)cc1 (configuration not stated) | 94.7 | 87.5 | 104 | 107 | 93.6 | 107 | 90.5 | 97.9 | 82.6 | 95 | 92.6 | 83.3 | 102 | 94.6 | 87.1 | 105 | 86.9 | 87.5 | 90.7 | 104 | 94.9 | 97.8 | 104 | 91.8 | 93.7 | 104 | 99.4 | 104 | 102 | 89.8 | 95.4 | 72.9 | 103
CNc1nc(Nc2cnn([C@H]3CCN(C4COC4)C[C@@H]3F)c2Cl)ncc1C(F)(F)F | 105 | 105 | 115 | 116 | 120 | 36.8 | 82.4 | 35.6 | 39.6 | 36.5 | 29.5 | 97.2 | 109 | 110 | 118 | 105 | 107 | 115 | 65.4 | 19.3 | 19.6 | 18 | 98.8 | 110 | 108 | 107 | 118 | 127 | 103 | 126 | 39.6 | 23.6 | 26.5
CC1=CC(=CC(=C1C\C2=N\CCN2)C)C(C)(C)C | 91.4 | 115 | 107 | 129 | 104 | 109 | 108 | 87.7 | 57.4 | 34.2 | 35.9 | 99.3 | 98.7 | 92.9 | 100 | 114 | 96.3 | 98.4 | 91.1 | 69.5 | 51.5 | 43.9 | 86.8 | 106 | 101 | 100 | 109 | 99.8 | 116 | 78.9 | 49.1 | 56.8 | 50.7
CCCNC(=O)Nc1ccc(Oc2ncnc3cc(OC)c(OC)cc23)cc1Cl | 96.9 | 98 | 84.1 | 95.7 | 97.7 | 87.9 | 103 | 81.8 | 71 | 71.6 | 73.5 | 89.6 | 90.7 | 84.7 | 95.7 | 86 | 90.6 | 81.9 | 90.3 | 87.4 | 82 | 77.6 | 97.8 | 92.4 | 101 | 96.7 | 90.9 | 88.4 | 86.7 | 84.4 | 84.7 | 81.9 | 70.5
COc1ccc(C(=O)CC2(O)C(=O)Nc3c(Cl)ccc(Cl)c32)cc1 (configuration not stated) | 111 | 115 | 128 | 119 | 106 | 119 | 120 | 121 | 77.3 | 34.5 | 26.7 | 95.6 | 108 | 119 | 111 | 109 | 113 | 109 | 123 | 101 | 25.6 | 18.6 | 89.5 | 111 | 110 | 108 | 108 | 120 | 117 | 108 | 99.2 | 26.6 | 22.4
Oc1nc(-c2ccc(C(F)(F)F)cc2)nc2c1CSCC2 | 125 | 90.4 | 96.4 | 81.1 | 98 | 93.4 | 111 | 98.4 | 118 | 94 | 100 | 88.5 | 88 | 93.5 | 91.8 | 95.5 | 97.9 | 96.2 | 87.6 | 85.8 | 104 | 88.2 | 92.6 | 99.8 | 105 | 94.3 | 98.1 | 102 | 91.8 | 102 | 98.4 | 99.4 | 90.4
COC(=O)c1ccc2c(c1)NC(=O)/C2=C(\Nc1ccc(N(C)C(=O)CN2CCN(C)CC2)cc1)c1ccccc1 | 92.1 | 92.1 | 106 | 99.5 | 106 | 91.3 | 89 | 103 | 87 | 91.9 | 84.4 | 98.3 | 96.8 | 96.5 | 97.4 | 89.3 | 110 | 109 | 97.8 | 92.6 | 83.4 | 83.1 | 92.7 | 93 | 94.7 | 90.8 | 93.5 | 95.2 | 85.3 | 88.9 | 88.5 | 96.8 | 98.5
